From US10532980B2, “N-methyl pyrazoles” (Prosetta Antiviral, Inc., priority 2015, dated 2020) come the findings set out here.

This experiment deals with Influenza A virus (A/WSN/1933(H1N1)). Kind of experiment: microbe, parasite or virus in culture. It is filed as cell-based. Particulars: MDCK, 24 h with compound, then 2 h drug-free medium.

SMILES strings stand for the structures.

Regarding `CCOc1c(Br)cc(CNC(=O)c2cc(C3CC3)nn2C)cc1OC` [Compound 41, N-(3-bromo-4-ethoxy-5-methoxybenzyl)-3-cyclopropyl-1-methyl-1H-pyrazole-5-carboxamide], the EC90 is 400 nM.

`Cc1c(F)cccc1CNC(=O)c1cc(C2CC2)nn1C` [Compound 19, 3-cyclopropyl-N-(3-fluoro-2-methylbenzyl)-1-methyl-1H-pyrazole-5-carboxamide]: the 90% effect concentration (EC90) came to 1500 nM.

For the molecule `COc1ccc(CNC(=O)c2cc(C(C)(C)C)nn2C)cc1Cl` [Compound 12, 3-(tert-butyl)-N-(3-chloro-4-methoxybenzyl)-1-methyl-1H-pyrazole-5-carboxamide], the EC90 turned out to be 1800 nM.

In the case of `CC(C)c1cc(C(=O)NCc2ccc(OCC3CC3)c(Cl)c2)n(C)n1` [Compound 15, N-(3-chloro-4-(cyclopropylmethoxy)benzyl)-3-isopropyl-1-methyl-1H-pyrazole-5-carboxamide], the EC90 is 400 nM.
